We go through nine compounds from US6080780A, “Use of nitroflavonoids for the treatment of anxiety” (University of Strathclyde, priority 1995, dated 2000).

Like-named read-outs stand apart in the source and are kept apart here.

In series [1] the target is central benzodiazepine receptors (BDZ-Rs). Description: 3H-FNZ binding to rat brain synaptosomal membranes (Section 3). On the procedure: In brief, for each assay, triplicate samples of the membranes, containing 0.2 to 0.4 mg protein were suspended in a final volume of 1 mL of 0.25 mM Tris--HCl buffer, pH 7.3. The incubation was carried out at 4° C. for 60 min with 0.6 nM ^3 H--FNZ. to study the binding saturation, a range of 0.3 to 10 nM ^3 H--FNZ was used. […] The assays were terminated by filtration under vacuum through Whatman GF/A glass-fiber filters, and three washes with 3 mL each of incubation medium. Filters were dried and counted after the addition of 5 mL of 2,5-diphenyloxazole/xylene as scintillation fluid.
The binding of ^3 H--FNZ was carried out as for (i) above.

Series [2] relates to mice. Kind of series: Elevated plus-maze, compound (IV). Type of series: in vivo, male Swiss mice. To be noted: i.p., 0.1 mg/kg, preliminary. How it is done:
The animals used in the pharmacological test were male Swiss mice from our breeding stock, weighting 28-35 g. They were placed in groups of ten with free access to water and food, and maintained on 12 h/12 h day/night cycle. The elevated plus-maze set-up consisted of a maze of two open arms, 25×5 cm, crossed by two closed arms of the same dimensions, with free access to all arms from the crossing point. The closed arms had walls 35 cm high all around. The maze was suspended 50 cm from the room floor. Mice were placed on the central part of the cross facing an open arm. The number of entries and the time spend going into open and closed arms were counted during 5 min. A selective increase in the parameters corresponding to open arms revels an anxiolytic effect. The total exploratory activity (number of entries in both arms) was also determined according to the method of Pellow, S. J. et al. Neurosci. Meth. 1986, 14, 149; Lister, R. G. Psychopharmacology 1987, 92, 180).

A further series concerns AMPA-glutamate receptors. Description: 3H-AMPA binding, compound (IV). The following applies: 10 μM.
For series [3], the system named is cholinergic-muscarinic receptors. In kind it is binding. To be noted: 10 μM.
In a further series the test system is GABAA receptors. Description: 3H-muscimol binding, compound (IV). To be noted: 10 μM.
In the next series the test system is serotonin 1A receptors. Description: 3H-8-OH-DPAT binding, compound (IV). The following applies: 10 μM.
The target in series [4] is benzodiazepine (BDZ-R) receptor. Kind of series: 3H-Flunitrazepam binding to extensively washed bovine cerebral cortical membranes. To be noted: read-out: Ki, inhibition of 3H-FNZ binding; bovine cerebral cortical membranes; 0.6 nM 3H-FNZ, 4° C., 60 min; n=3. How it is done: Non-specific nitration of the flavone nucleus yielded the two nitrated flavone (II) and (IIa). […] Briefly, ^3 H-FNZ binding was carried out as described by Levy de Stein, M., Medina, J. H., De Robertis E., Mol. Brain Res. 1985, 5, 9-15. In brief, for each assay, triplicate samples of the membranes, containing 0.2 to 0.4 mg protein were suspended in a final volume of 1 mL of 0.25 mM Tris-HCl buffer, pH 7.3. The incubation was carried out at 4° C. for 60 minutes with 0.6 nM ^3 -FNZ. To study the binding saturation, a range of 0.3 to 10 nM ^3 H-FNZ was used. Non-specific binding was determined in parallel incubations in the presence of 3 μM FNZ, and represented 5-15% of total. The assays were terminated by filtration under vacuum though Whatman GF/A glass-fiber filters, and three washes with 3 mL each of incubation medium. Filters were dried and counted after the addition of 5 mL of 2,5-diphenyloxazole/xylene as scintillation fluid. Bovine cerebral cortical membranes were treated substantially following the method of Medina, J. H., De Robertis, E. J., J. Neurochem. 1985, 44, 1340-1345.

Series [5] has as its system mice. Kind of series: Holeboard test in mice. In kind it is in vivo, male Swiss mice. The following applies: mice, 1 mg/kg; vehicle=8.5±1.2, p<0.001. On the procedure: (§1) Adult male Wistar rats weighing 250 g were used for biochemical experiments. Adult male Swiss male weighing 25-30 g were used for pharmacological assays except for inhibitory avoidance and tail flick tests were done in rats. Animals were housed in a controlled environment, with free access to food and water and maintained on a 12 h/12 h day/night cycle.
The test was performed according to Viola et al. (1994) and Wolfman et al. (1994). The number of head dips and the time spent head dipping were counted during 5 min.

In series [6] the test system is mice. Kind of series: Pentylenetetrazole (PTZ)-induced seizures. In kind it is in vivo. How it is done: The effects of DNF on pentylenetetrazole (PTZ)--induced convulsions were evaluated according to Medina et al., (1990) with slight modifications. PTZ (200 mg/kg) was administered i.p. to mice 15 min after injection of drug or vehicle. The number of mice presenting clonic convulsions was determined.
Data are expressed as the percentage of mice presenting clonic or tonic-clonic seizures. ^3 number of animals per group.

The test system of series [7] is mice. Description: Horizontal wire test in mice. The following applies: mice, i.p. In kind it is in vivo, male Swiss mice. On the procedure:
as §1
This test was carried out as previously described (Viola et al., 1994; Wolfman et al., 1994; Viola et al., 1995). The test took place after two trials, performed at 5 min intervals. A myorelaxant drug will impair mice to grasp the wire (Bonetti et al., 1982). The effect of DNF )1 mg/kg) on DZ-induced myorelaxation was also determined.

Series [8] concerns the target central benzodiazepine receptor. Kind of series: [3H]-FNZ binding to crude synaptosomal membranes from rat CNS regions. Also on record: species or system rat (Wistar). How it is done:
as §1
Displacement curves were performed using [^3 ]-FNZ or [^3 H]-zolpidem ([^3 H]-ZOLP) as radioligands in washed crude synaptosomal membranes from rat cerebral cortex, cerebellum, hippocampus, striatum or spinal cord. Membrane preparations were carried out according to Medina et al. (1990). Briefly, brains were rapidly dissected out on ice and the different structures were homogenized in 10 volumes of 0.32 M sucrose and centrifuged at 900×g for 10 min. The resulting supernatant was centrifuged at 100,000×g for 30 min and the pellet washed twice in 25 mM Tris HCl buffer pH 7.4 at 100,000×g for 30 min, and stored at -20° C. until used.
For [^3 H]-FNZ (84 Ci/mmol, NEN) displacement curves, different concentrations of DNF (0.3 nM to 1 μM) were added to 0.3 mg membrane protein suspended in 1 ml of 25 mM Tris HCl buffer in presence of 0.6 nM of the radioligand. Protein determination was carried out by using the method of Lowry et al. (1951). Nonspecific binding (<5%) was determined in parallel incubations with 10 μM FNZ (Hoffmann-La Roche). The incubation was carried out at 4° C. for 2 h. The assays were determined by filtration under vacuum through Whatman GF/A glass fiber filters, and two washes with 3 ml each of incubation medium. Filters were dried and counted after the addition of 5 ml 2,5-diphenyl-oxazole (PPO)-xylene as scintillation fluid.

In series [9] the test system is mice. Kind of series: Elevated plus maze test in mice (Section 2). In kind it is in vivo, male Swiss mice. To be noted: mice. How it is done:
as §1
An Opto-varimex® apparatus was used according to Viola et al. (1994). The apparatus discriminates between total and ambulatory activities. An increase in the number of transitions through the beams reflects augmented locomotor activity. In this and all following tests in mice, animals were i.p. injected with the vehicle, or with DNF 20 min before the beginning of the tests. In each session, control mice were tested in parallel with those animals receiving drug treatment.
The test was performed in the same session immediately after the locomotor activity measurement (Viola et al., 1994; Wolfman et al., 1994). […] A series of experiments with the injection of the selective central benzodiazepine receptor antagonist Ro 15-1788 (File and Pellow, 1986) was also carried out.

Series [10] has as its system mice. Kind of series: Elevated plus-maze test in mice (Section 1, incl. Table 1). Type of series: in vivo, male Swiss mice. To be noted: Mus musculus, ip, read-out: minimum dose necessary to produce similar anxiolytic effects. How it is done: Performance of mice on the elevated plus-maze test was used to measure anxiolytic actions in rodents, following i.p. administration of vehicle or compound (II).
The animals used in the pharmacological test were male Swiss mice from breeding stock, weighing 28-35 g. They were placed n groups of ten with free access to water and food, and maintained on 12 h/12 h day/night cycle. In all the tests the mice were i.p. injected with VEH or a solution of the drug, 15 minutes before the assay.
The elevated plus-maze set-up consisted of a maze of two open arms, 25×5 cm, crossed by two closed arms of the same dimensions, with free access to all arms from the crossing point. The closed arms had walls 35 cm high all around. The maze was suspended 50 cm from the room floor. Mice were placed on the central part of the cross facing an open arm. The number of entries and the time spent going into open and closed arms were counted during 5 minutes. […] The total exploratory activity (number of entries in both arms) was also determined.

Setting [11] is: rat cerebral cortex, read-out: Ki, 3H-FNZ binding.

Take `O=c1cc(-c2cccc([N+](=O)[O-])c2)oc2ccccc12` [(VI), 3'-nitroflavone]: the Ki in series [1] (setting [11]) came out at 250 nM.

Consider `O=c1cc(-c2cccc([N+](=O)[O-])c2)oc2ccc(Cl)cc12` [(VIII), 6-Chloro-3'-nitroflavone], for which, in [1] (setting [11]), the Ki turned out to be 8 nM.

With `O=c1cc(-c2cccc([N+](=O)[O-])c2)oc2ccc(Br)cc12` [Compound (IV), 6-bromo-3'-nitroflavone], the “percentage of entries in the open arms” value with mice [2] was “increasing both the percentage of entries in the open arms”. In addition, the “time spent in the open arms” value with mice [2] was “increasing both the percentage of entries in the open arms and the time spent in these arms”. The “displacement of 3H-AMPA binding” value in the series on AMPA-glutamate receptors was “does not displace”. The “displacement of 3H-QNB binding” value in series [3] was “does not displace”. In the series on GABAA receptors, the “displacement of [3H]-muscimol binding” value was “does not displace”. Moreover, the Ki in series [1] (cerebellum, n=4, read-out: Ki SEM, 3H-FNZ binding) is 3.6 ± 0.1 nM; in series [1] (cerebral cortex, first (high affinity) population of sites, n=6, read-out: Ki SEM, 3H-FNZ binding) it was 1.2 nM; in [1] (cerebral cortex, second population of sites, n=6, read-out: Ki SEM, 3H-FNZ binding), 15.5 nM; in series [1] (hippocampus, n=2, read-out: Ki SEM, 3H-FNZ binding), 9.6 ± 0.6 nM; in series [1] (setting [11]), 220 ± 1 nM; in series [1] (spinal cord, n=3, read-out: Ki SEM, 3H-FNZ binding), 12.7 ± 0.5 nM. Moreover, in [1] (striatum, n=3, read-out: Ki SEM, 3H-FNZ binding), the inhibition constant Ki stood at 9.8 ± 1.6 nM. In [1] (cerebral cortical membranes, data not shown), the “Scatchard analysis of 3H-FNZ saturation curves” value is recorded as “competitive ligand for the BDZ-R”. Moreover, in series [1] (ratio), the “affinity in spinal cord vs highest value in cerebral cortex” value is given as 10 times lower. For the same compound, the “potency for displacement of 3H-FNZ, type II BDZ-R regions vs cerebellum” value in series [1] (ratio) is on record as 3-4 times lower. Moreover, the “displacement of 3H-8-OH-DPAT binding” value with serotonin 1A receptors is on record as “does not displace”.

`O=c1cc(-c2cccc([N+](=O)[O-])c2)oc2ccc(F)cc12` [(IX), 6-Fluoro-3'-nitroflavone]: in [1] (setting [11]), the Ki is 170 nM.

For the compound `O=c1cc(-c2ccc([N+](=O)[O-])cc2)oc2ccc([N+](=O)[O-])cc12` [(IIa), 6,4'-Dinitroflavone], the inhibition constant Ki in series [4] is 17000 ± 5000 nM.

`CN1C(=O)CN=C(c2ccccc2)c2cc(Cl)ccc21` [Diazepam, reference compound] displayed a head dips in the series with mice [5] of 1.2±0.5. Also, the “% of convulsing mice” value in the series on mice [6] (DZ 0.3 mg/kg, n=6, p<0.001 (VEH + PTZ 96)) was determined as 33.3%; with mice [6] (DZ 1.0 mg/kg, n=12, p<0.001) it was 42%; with mice [6] (DZ 3.0 mg/kg, n=9, p<0.001), 0%. In addition, in the series with mice [6] (mice, 0.3-3 mg/kg, p<0.001, PTZ 200 mg/kg), the “anticonvulsant activity vs PTZ” value was “showed anticonvulsant activity”. The myorelaxant effect result in the series with mice [7] (1 mg/kg) is “marked myorelaxant effect”. The “animals showing myorelaxant effect” value with mice [7] (DZ 1 mg/kg) is 8 animals out of 10. The Ki in [8] (all the brain regions studied, read-out: Ki, [3H]-FNZ binding) is roughly 7 nM. In the series with mice [9], the “dose needed to increase open arm entries relative to DNF” value is recorded as 10-100 times higher. Besides, in the series with mice [9] (0.3 mg/kg, vehicle=22.9±2.0%, p<0.05), the “percentage of open arm entries” value worked out at 35.0±4.5%. Moreover, in the series on mice [10], the minimal effective dose is 0.03 mg/kg.

`Cc1nnc2ccc(-c3cccc(C(F)(F)F)c3)nn12` [CL 218,872, reference compound]: the inhibition constant (Ki) came to 10 nM in series [8] (cortical membranes, high affinity site, read-out: high affinity Ki value) and 1200 nM in series [8] (cortical membranes, low affinity site, read-out: low affinity Ki value).

Regarding `O=c1cc(-c2ccccc2[N+](=O)[O-])oc2ccc(Br)cc12` [Compound (III), 6-bromo-2'-nitroflavone], in series [1] (setting [11]), the inhibitory constant (Ki) was found to be 208 nM.

For `O=c1cc(-c2ccc([N+](=O)[O-])cc2)oc2ccc(Br)cc12` [Compound (V), 6-bromo-4'-nitroflavone], the Ki in series [1] (setting [11]) worked out at 220 nM.

The Ki is the dissociation constant of the complex between target and ligand, obtained from inhibition or displacement.
